Data from paper PMC8156151 (The European Respiratory Journal, 2021).
Read-outs that look alike come from different tables or passages of the source.

Experiments:
Format in all cases: in vivo, human
[1] = tested on: SP-D; experiment: Plasma biomarker SP-D; conditions: for SP-D raw data, Mean (SD) / SP-D least square means % baseline±SEM: IPF patients
Method: (§1) All patients, investigators, sites and study sponsor personnel were blinded to the study group assignments throughout the study. Patients underwent study-specific assessments on days 2, 3, 7, 14 and 15, and a post-study assessment was carried out 26–30 days after the last day of the study period. Assessments included vital signs (supine blood pressure, pulse, oxygen saturation, oral temperature and respiratory rate), spirometry, 12-lead ECG, physical examination, laboratory safety screen (haematology, biochemistry, urinalysis and urinary drugs of abuse screen) and blood sampling for PK measurements. All adverse events and concomitant medications were recorded from the time of the screening visit until the post-study follow-up visit. BAL was performed at day −1 (24 h before the first dose) and at day 14 (2 h after the last dose). The BAL procedure was performed as per international guidelines. Briefly, 240 mL of 0.9% saline at room temperature was instilled in 40 mL aliquots into the right middle lobe and aspirated by suction after each aliquot.
(§2) BAL cells were separated from fluid by centrifugation, and cells were collected, stained with antibodies (supplementary material) and then fixed before analysis using a LSR Fortessa flow cytometer (Becton Dickinson, Franklin Lakes, NJ, USA). Data were analysed using FlowJo software (Tree Star, Ashland, OR, USA). Macrophages were identified as having high side scatter properties and human leukocyte antigen-DR positivity. Gal-3 expression (mean fluorescence intensity) was determined from the macrophage gate (supplementary figures S1 and S2). […] Samples were analysed by magnetic Luminex assay (R&D Systems, Minneapolis, MN, USA) or ELISA.
(§3) For part 2 of the study, placebos were combined from the three dose-specific cohorts into a pooled control group (n=9). For alveolar macrophage Gal-3 expression and the plasma biomarkers, ANCOVA was performed for percentage of baseline ((day 14/day 1)×100). The ANCOVA model included effects for treatment group and baseline (day 1) value. […] An additional analysis including dose as a continuous covariate was also performed. The Pearson correlation coefficient (r) and associated p-value were calculated for percentage of baseline and day 14 values between plasma biomarkers and alveolar macrophage Gal-3 expression. […] The analysis is exploratory and there was no pre-planned adjustment for multiple testing; the study was not powered for this. Alveolar macrophage Gal-3 expression was considered the primary exploratory analysis with the pre-selected biomarkers secondary. A Bonferroni correction for multiple testing of the secondary end-points comparing the 10 mg group with placebo gives a critical value of 0.0063. Data are presented as the difference in least square means with 95% confidence interval and p-value unless otherwise stated. All analyses were performed using SAS version 9.4 (SAS Institute, Cary, NC, USA). […]

[2] = tested on: TIMP-1; experiment: Plasma biomarker TIMP-1; conditions: for TIMP1 raw data, Mean (SD) / TIMP-1 least square means % baseline±SEM: IPF patients
Method: as §1, §2, §3

[3] = Plasma pharmacokinetics, part 1 (healthy subjects)
Method: Subjects were discharged 24 h post-dose (day 2) provided there were no safety concerns, and returned for three outpatient visits on days 3, 8 and 14 post-dose, with a post-study follow-up between days 26 and 30. Safety and PK assessments were made at predetermined time-points.
(§4) Full plasma PK profiles were conducted on days 1 (first day of dosing) and 14 (last day of dosing). […] Standard noncompartmental methods were applied to derive PK parameters using Phoenix WinNonlin version 6.3 (Certara, Sheffield, UK). […] Drug compartment measurements in BAL alveolar macrophages and fluid were determined as described previously.

[4] = TD139 concentration in BAL alveolar macrophages, ELF and plasma
Method: as §4

[5] = tested on: HGF; experiment: Plasma biomarker HGF; conditions: for HGF raw data, Mean (SD) / HGF least square means % baseline±SEM: IPF patients
Method: as §1, §2, §3

[6] = tested on: CCL2 (MCP-1); experiment: Plasma biomarker CCL2; conditions: for CCL2 (MCP-1) raw data, Mean (SD) / CCL2 (MCP-1) least square means % baseline±SEM: IPF patients
Method: as §1, §2, §3

[7] = tested on: YKL-40 (CHI3L1); experiment: Plasma biomarker YKL-40; conditions: for YKL-40 (CHI3L1) raw data, Mean (SD) / YKL-40 (CHI3L1) least square means % baseline±SEM: IPF patients
Method: as §1, §2, §3

[8] = tested on: MMP-1; experiment: Plasma biomarker MMP-1; conditions: for MMP-1 raw data, Mean (SD) / MMP-1 least square means % baseline±SEM: IPF patients
Method: as §1, §2, §3

[9] = tested on: MIF; experiment: Plasma biomarker MIF; conditions: for MIF raw data, Mean (SD) / MIF least square means % baseline±SEM: IPF patients
Method: as §1, §2, §3

[10] = human, inhaled or intranasal, single inhaled 1.5 mg, mean±SD
[11] = human, inhaled or intranasal, single inhaled 3 mg, mean±SD
[12] = human, inhaled or intranasal, single inhaled 10 mg, mean±SD
[13] = human, inhaled or intranasal, single inhaled 20 mg, mean±SD
[14] = human, inhaled or intranasal, single inhaled 50 mg, mean±SD

OC[C@H]1O[C@@H](S[C@@H]2O[C@H](CO)[C@H](O)[C@H](n3cc(-c4cccc(F)c4)nn3)[C@H]2O)[C@H](O)[C@@H](n2cc(-c3cccc(F)c3)nn2)[C@H]1O [TD139]
SP-D difference in least square means % baseline (95% CI) ([1]; 10 mg vs placebo, ANCOVA): 4.0 (−41.0–49.1) % baseline
SP-D raw data, Mean (SD) ([1]; Day 14, 0.3 mg): 38987.4 (10734.36) pg/ml
SP-D raw data, Mean (SD) ([1]; Day 14, 3 mg): 91473.6 (43437.58) pg/ml
SP-D raw data, Mean (SD) ([1]; Day 14, 10 mg): 30347 (3552.88) pg/ml
SP-D least square means % baseline±SEM ([1]; day 14, 0.3 mg once daily): 109.6±16.6 % baseline
SP-D least square means % baseline±SEM ([1]; day 14, 3 mg once daily): 111.7±18.2 % baseline
SP-D least square means % baseline±SEM ([1]; day 14, 10 mg once daily): 118.7±17.3 % baseline
TIMP-1 difference in least square means % baseline (95% CI) ([2]; 10 mg vs placebo, ANCOVA): 3.8 (−10.6–18.2) % baseline
TIMP1 raw data, Mean (SD) ([2]; Day 14, 0.3 mg): 38084.3 (4735.81) pg/ml
TIMP1 raw data, Mean (SD) ([2]; Day 14, 3 mg): 49880.6 (1032.27) pg/ml
TIMP1 raw data, Mean (SD) ([2]; Day 14, 10 mg): 45458.7 (11908.04) pg/ml
TIMP-1 least square means % baseline±SEM ([2]; day 14, 0.3 mg once daily): 88.6±5.8 % baseline
TIMP-1 least square means % baseline±SEM ([2]; day 14, 3 mg once daily): 107.0±6.0 % baseline
TIMP-1 least square means % baseline±SEM ([2]; day 14, 10 mg once daily): 106.0±5.5 % baseline
AUC(0-inf) [3, 10]: 17.9 ± 14 ng·h/mL
half-life [3, 10]: 67.8 ± 37.8 min
Cmax ([3]; human, inhaled or intranasal, single inhaled 1.5 mg, mean±SD, read-out: Cmax): 2.37 ± 1.48 ng/mL
AUC(0-inf) [3, 11]: 70.8 ± 22.7 ng·h/mL
half-life [3, 11]: 180 ± 49.2 min
Cmax ([3]; human, inhaled or intranasal, single inhaled 3 mg, mean±SD, read-out: Cmax): 8.21 ± 2.67 ng/mL
AUC(0-inf) [3, 12]: 184 ± 64.5 ng·h/mL
half-life [3, 12]: 71.4 ± 56.4 min
Cmax ([3]; human, inhaled or intranasal, single inhaled 10 mg, mean±SD, read-out: Cmax): 22.6 ± 8.69 ng/mL
AUC(0-inf) [3, 13]: 544 ± 114 ng·h/mL
half-life [3, 13]: 78.6 ± 108 min
Cmax ([3]; human, inhaled or intranasal, single inhaled 20 mg, mean±SD, read-out: Cmax): 81.1 ± 27 ng/mL
AUC(0-inf) [3, 14]: 1160 ± 532 ng·h/mL
half-life [3, 14]: 48.6 ± 48 min
Cmax ([3]; human, inhaled or intranasal, single inhaled 50 mg, mean±SD, read-out: Cmax): 126 ± 43.3 ng/mL
Cmax ([3]; single inhaled 0.15 mg, BLQ: below limit of quantification (0.5 ng·mL^−1)): BLQ
correlation between concentrations of TD139 in ELF and AMs (r) ([4]; all active cohorts, day 14): 0.89 (95% CI 0.70–0.96)
correlation between concentrations of TD139 in plasma (total) and AMs (r) ([4]; all active cohorts, day 14): 0.89 (95% CI 0.65–0.96)
Kp at 2 h ([4]; human, inhaled, concentration of TD139 in BAL macrophages (lung) relative to systemic exposure (blood), IPF patients, 2 h post-dosing on day 14): > 567
HGF difference in least square means % baseline (95% CI) ([5]; 10 mg vs placebo, ANCOVA): −37.2 (−85.5–11.2) % baseline
HGF raw data, Mean (SD) ([5]; Day 14, 0.3 mg): 109.8 (23.24) pg/ml
HGF raw data, Mean (SD) ([5]; Day 14, 3 mg): 159.1 (110.2) pg/ml
HGF raw data, Mean (SD) ([5]; Day 14, 10 mg): 131.2 (44.47) pg/ml
HGF least square means % baseline±SEM ([5]; day 14, 0.3 mg once daily): 100.3±17.5 % baseline
HGF least square means % baseline±SEM ([5]; day 14, 3 mg once daily): 103.2±16.9 % baseline
HGF least square means % baseline±SEM ([5]; day 14, 10 mg once daily): 73.2±18.8 % baseline
CCL2 (MCP-1) difference in least square means % baseline (95% CI) ([6]; 10 mg vs placebo, ANCOVA): −71.7 (−187.1–43.7) % baseline
CCL2 (MCP-1) raw data, Mean (SD) ([6]; Day 14, 0.3 mg): 133.8 (15.06) pg/ml
CCL2 (MCP-1) raw data, Mean (SD) ([6]; Day 14, 3 mg): 137.6 (63.21) pg/ml
CCL2 (MCP-1) raw data, Mean (SD) ([6]; Day 14, 10 mg): 270.3 (348.45) pg/ml
CCL2 (MCP-1) least square means % baseline±SEM ([6]; day 14, 0.3 mg once daily): 126.7±39.3 % baseline
CCL2 (MCP-1) least square means % baseline±SEM ([6]; day 14, 3 mg once daily): 93.7±38.7 % baseline
CCL2 (MCP-1) least square means % baseline±SEM ([6]; day 14, 10 mg once daily): 89.4±43.5 % baseline
YKL-40 (CHI3L1) difference in least square means % baseline (95% CI) ([7]; 10 mg vs placebo, ANCOVA): −28.9 (−55.9– −1.9) % baseline
YKL-40 (CHI3L1) raw data, Mean (SD) ([7]; Day 14, 0.3 mg): 45140.2 (34041.85) pg/ml
YKL-40 (CHI3L1) raw data, Mean (SD) ([7]; Day 14, 3 mg): 146819.5 (40114.19) pg/ml
YKL-40 (CHI3L1) raw data, Mean (SD) ([7]; Day 14, 10 mg): 79975.5 (38590.77) pg/ml
YKL-40 (CHI3L1) least square means % baseline±SEM ([7]; day 14, 0.3 mg once daily): 84.1±12.5 % baseline
YKL-40 (CHI3L1) least square means % baseline±SEM ([7]; day 14, 3 mg once daily): 50.2±18.6 % baseline
YKL-40 (CHI3L1) least square means % baseline±SEM ([7]; day 14, 10 mg once daily): 51.6±10.4 % baseline
MMP-1 difference in least square means % baseline (95% CI) ([8]; 10 mg vs placebo, ANCOVA): −102.1 (−251.4–47.3) % baseline
MMP-1 raw data, Mean (SD) ([8]; Day 14, 0.3 mg): 535.1 (449.22) pg/ml
MMP-1 raw data, Mean (SD) ([8]; Day 14, 3 mg): 1494.4 (647.67) pg/ml
MMP-1 raw data, Mean (SD) ([8]; Day 14, 10 mg): 537.5 (257.55) pg/ml
MMP-1 least square means % baseline±SEM ([8]; day 14, 0.3 mg once daily): 67.3±56.3 % baseline
MMP-1 least square means % baseline±SEM ([8]; day 14, 3 mg once daily): 107.1±59.1 % baseline
MMP-1 least square means % baseline±SEM ([8]; day 14, 10 mg once daily): 62.1±58.1 % baseline
MIF difference in least square means % baseline (95% CI) ([9]; 10 mg vs placebo, ANCOVA): −120.2 (−339.2–98.9) % baseline
MIF raw data, Mean (SD) ([9]; Day 14, 0.3 mg): 65871.3 (42284.53) pg/ml
MIF raw data, Mean (SD) ([9]; Day 14, 3 mg): 38884 (35236.82) pg/ml
MIF raw data, Mean (SD) ([9]; Day 14, 10 mg): 39660.6 (57202.1) pg/ml
MIF least square means % baseline±SEM ([9]; day 14, 0.3 mg once daily): 123.6±83.6 % baseline
MIF least square means % baseline±SEM ([9]; day 14, 3 mg once daily): 95.9±83.9 % baseline
MIF least square means % baseline±SEM ([9]; day 14, 10 mg once daily): 73.9±83.7 % baseline
